Source: patent US20030125314A1, “Photodynamic therapy for the treatment of epilepsy” (priority 2001, published 2003)

How the values were obtained:
kindled rats [1] = experiment: Beam walk test to assess paresis after photodynamic therapy; type: in vivo, rat; details: animals completing the photodynamic therapy protocol, compared to historic controls
From the text: (§1) In our study, animals completing the photodynamic therapy protocol recovered from surgery and underwent behavioral testing using the beam walk test to assess paresis and the Morris Water Maze to assess hippocampus related learning.

[2] = cited from earlier work
[3] = tested on: rat model of epilepsy (kindled rats); experiment: Morris Water Maze (spatial learning and memory) after photodynamic therapy; type: in vivo, Sprague-Dawley rats; details: ALA 400 mg/Kg IV, 635 nm laser 10 min at 4 h, vs control animals, F(3,27)=0.920, p=0.445 between groups
From the text: To assess behavioral outcome, thirty-one Sprague-Dawley rats were placed into four groups to test the effects of PDT treatment parameters. All animals underwent a behavioral battery that included the Morris Water Maze (MWM), selected to assess one aspect of hippocampal function, spatial learning and memory and incline plane (IP) to screen for motor injury. […] Male Sprague-Dawley rats (275 g) had bipolar stimulating electrodes stereotactically implanted under surgical anesthesia at 7.4 mm posterior to Bregma and 4.1 lateral to the midline through a 1.5 mm craniotomy. […] ALA (400 mg/Kg) was injected intravenously through a femoral vein catheter. […] Four hours post drug administration animals were anesthetized and stereotactically positioned. […] A 4 mm diameter was created and a laser was positioned 2.3 mm from the surface of the brain. […] Laser light was focused on the brain for 10 minutes at a wavelength of 635 nanometers. […] All animals participated in the MWM test which was conducted over 5 consecutive days.

hippocampal cells = experiment: PpIX fluorescence in brain sections after ALA infusion (fluorescence microscopy, Texas Red filter); details: 400 mg/Kg IV, 4 hours
kindled rats [4] = experiment: Resumed daily kindling stimulations after PDT (seizure activity, after discharges); type: in vivo, rat; details: PDT animals, over 1 week of daily stimulation
From the text: We have assessed this therapy in kindled rats. Kindling is a well characterized and reproducible model for reflecting epileptogensis, the process by which a normal brain region becomes an epileptic focus. Animals are kindled with an electrode implanted into the perforant path region of the brain. Each day the animals receive a small stimulus. Initially no seizure activity is induced, but over two or three weeks, this same low level of stimulation generates increasing seizure activity until an animal has 3 consecutive tonic clonic (Stage 5) seizures. Once fully kindled, animals retain this seizure sensitivity even if not stimulated for days or months.
as §1

kindled rats [5] = experiment: Morris Water Maze after photodynamic therapy, compared to historic controls; type: in vivo, rat; details: animals completing the photodynamic therapy protocol
From the text: as §1

[6] = tested on: CA1 and CA3 regions of the kindled hippocampus; experiment: Fluorojade histofluorescence analysis of cell death after laser-induced PDT; type: in vivo, rat; details: 24 hours after laser-induced PDT of ALA-treated animals
Description: The Wilson laboratory at the University of Toronto has previously measured apoptotic cell death at 24 hours following PDT and our Fluorojade results are consistent with their findings. Lilge et al. (2000) have shown that necrotic and apoptotic cell death are a function of the laser exposure (a variable easy to control) and not extent of ALA uptake or conversion.
Fluorojade (Histo-Chem, Inc) staining will be carried out on 20 micron cryostat-prepared brain sections. Tissue sections are mounted onto gelatinized slides and allowed to dry at room temp. Using a staining rack, slides are immersed in 100% EtOH (3 min), in 70% EtOH (1 min), in distilled water (1 min), and then in 0.06% solution of potassium permanganate (15 min, shaking gently). Slides are rinsed in distilled water, and then immersed in a 0.001% Fluoro-Jade solution (away from light, 30 min, shaking gently) following steps carried out in dim light). Still in dim light, slides are then rinsed, dried, dehydrated (xylene), and coverslipped. Stained slides, viewed with a fluorescence microscope (FITC filter), reveal apoptotic cells as brightly green.

[7] = tested on: rat model of epilepsy (kindled rats); experiment: Incline Plane test (motor/grip strength) after photodynamic therapy; type: in vivo, Sprague-Dawley rats; details: ALA 400 mg/Kg IV, 635 nm laser 10 min, vs control groups, F(3,27)=1.616, p=0.209 between groups
Description: To assess behavioral outcome, thirty-one Sprague-Dawley rats were placed into four groups to test the effects of PDT treatment parameters. All animals underwent a behavioral battery that included the Morris Water Maze (MWM), selected to assess one aspect of hippocampal function, spatial learning and memory and incline plane (IP) to screen for motor injury. […] ALA (400 mg/Kg) was injected intravenously through a femoral vein catheter. […] Four hours post drug administration animals were anesthetized and stereotactically positioned. […] A 4 mm diameter was created and a laser was positioned 2.3 mm from the surface of the brain. […] Laser light was focused on the brain for 10 minutes at a wavelength of 635 nanometers. […] This test was selected because it can evaluate bilateral grip strength and we used this test to screen for any motor and/or coordination deficiencies resulting for the surgical craniectomy or laser effect on the cortex. […] Any sign of hemiparesis may indicate undesired cortical injury. […] This test involves the initial placement of the animal at a 65 degree angle to the horizontal. The flat plane can move up or down at intervals of 5 degrees, until they are at an angle where they can hold their position without sliding down. Then the opposite side is tested. Animals are evaluated on this task on days 1-4 before going on to the MWM.

SMILES: NCC(=O)CCC(=O)O [ALA, 5-aminolevulinic acid]
- hemiparesis (beam walk test) (kindled rats [1]): no hemiparesis
- blood-brain barrier passage ([2]; evidenced by increased PpIX concentrations in normal brain tissue after ALA administration (Hebeda, K., 1995)): can cross the blood-brain barrier
- time point of maximal uptake of ALA into brain tissue ([2]; following the ALA injection (Lilge, L., et al. 2000)): four
- performance on the MWM task [3]: no significant differences
- ALA uptake in hippocampal cells (PpIX fluorescence) (hippocampal cells; fully kindled rats with elicited seizures vs fully kindled rats without elicited seizures and implanted controls, preliminary data): greater ALA uptake in hippocampal cells
- PpIX fluorescence (hippocampal cells; kindled rats without elicited seizures vs implanted controls, initial results): more fluorescence than implanted controls
- seizure activity / after discharges on resumed kindling stimulation (kindled rats [4]): no seizure activity or significant after discharges
- learning impairment (Morris Water Maze) (kindled rats [5]): no hemiparesis or learning impairment
- cell death (Fluorojade histofluorescence) [6]: selective cell death in the CA1 and CA3 regions of the kindled hippocampus
- incline plane assessment (motor performance) [7]: no difference between groups
